Laboratory results published in BindingDB's records for doi:10.1016/S0960-894X(01)80136-0 (1994).

experiment: Apparent inhibition constant of the FKBP […] isomerase (PPIase) activity

SMILES	Ki [µM]
CC1(C)COC(=O)CCCCCCCCCOC(=O)[C@@H]2CCCCN2C(=O)C1=O	30
CC1(C)COC(=O)CCCCCCCCCCCCCCCOC(=O)C2CCCCN2C(=O)C1=O (stereo not given) [7,7-Dimethyl-icosahydro-9,26-dioxa-4a-aza-benzocyclopentacosene-5,6,10,27-tetraone]	11000
CC1(C)COC(=O)CCCOC(=O)C2CCCCN2C(=O)C1=O (stereo not given) [7,7-Dimethyl-octahydro-9,14-dioxa-4a-aza-benzocyclotridecene-5,6,10,15-tetraone]	2900
CC1(C)COC(=O)CCCCCCCCCOC(=O)C2CCCCN2C(=O)C1=O (stereo not given) [7,7-Dimethyl-tetradecahydro-9,20-dioxa-4a-aza-benzocyclononadecene-5,6,10,21-tetraone]	90
CC1(C)COC(=O)CCCCCCCCCCC(CCC2CCCCC2)OC(=O)C2CCCCN2C(=O)C1=O (stereo not given) [21-(2-Cyclohexyl-ethyl)-7,7-dimethyl-hexadecahydro-9,22-dioxa-4a-aza-benzocyclohenicosene-5,6,10,23-tetraone]	190
